Data set [1] is described as follows: Solubility of testosterone esters in lipophilic additives (castor oil, oleic acid, glyceryl mono and di linoleate), HPLC. The conditions noted are these: room temperature, equilibrium, compared to the Undecanoate (T11) ester, values only in FIGS. 1-3.
The conditions of data set [2]: background statement, cited from earlier work.
Where [3] appears, read: single daily dose oral administration.

`CCCCCCCCCCCCCC(=O)O[C@H]1CC[C@H]2[C@@H]3CCC4=CC(=O)CC[C@]4(C)[C@H]3CC[C@]12C` [Testosterone Tetradecoate (T14), Testosterone Tetradecoate]: the “solubility in lipophilic additives (in words)” value in data set [1] is given as “unexpectedly disproportionate lower solubility”.
As for `C[C@]12CCC(=O)C=C1CC[C@@H]1[C@@H]2CC[C@@]2(C)[C@H]1CC[C@]2(C)O` [methyl testosterone], the “reported adverse effects (in words)” value in data set [2] (oral use) is “liver damage including cholestasis, peliosis hepatitis, nodular regenerative hyperplasia, and primary hepatic tumors”.
Regarding `CCCCCCCCCCC(=O)O[C@H]1CC[C@H]2[C@@H]3CCC4=CC(=O)CC[C@]4(C)[C@H]3CC[C@]12C` [Testosterone Undecanoate (T11), Testosterone Undecanoate], in data set [2] (setting [3]), the “percentage of patients in a group whose serum T remains in the hypogonadal range for a large proportion of the dosing period” value is greater than 60% and the “time serum T levels remain in the hypogonadal range (<300 ng/dL) in a 24-hour period” value was greater than 7 h.
With `CCCCCCCCCCCCC(=O)O[C@H]1CC[C@H]2[C@@H]3CCC4=CC(=O)CC[C@]4(C)[C@H]3CC[C@]12C` [Testosterone Tridecoate (T13), Testosterone Tridecoate], the “solubility in lipophilic additives (in words)” value in data set [1] is “unexpectedly disproportionate lower solubility”.

Values taken from US20140288039A1, “LI[…] CHAIN TE[…] FOR ORAL […]” (Lipocine Inc., priority 2009, published 2014).
